Patent US8815903B2, “Indole derivative and pharmacologically acceptable salt thereof” (Kissei Pharmaceutical Co., Ltd., priority 2011, dated 2014)

How the values were obtained:
rat EP1 receptor = target: T1, rat EP1 receptor (Rattus norvegicus, UniProt P70597); test: Test for confirmation of EP1 receptor antagonism (inhibition of PGE2-induced increase in intracellular calcium concentration); format: cell-based; conditions: rat EP1 receptor-expressing COS-1 cells; prostaglandin E2 10 nM; fluorescent calcium indicator, FDSS 7000
T1 construct: expressed in transfected cells
T1 sequence (P70597 1-405): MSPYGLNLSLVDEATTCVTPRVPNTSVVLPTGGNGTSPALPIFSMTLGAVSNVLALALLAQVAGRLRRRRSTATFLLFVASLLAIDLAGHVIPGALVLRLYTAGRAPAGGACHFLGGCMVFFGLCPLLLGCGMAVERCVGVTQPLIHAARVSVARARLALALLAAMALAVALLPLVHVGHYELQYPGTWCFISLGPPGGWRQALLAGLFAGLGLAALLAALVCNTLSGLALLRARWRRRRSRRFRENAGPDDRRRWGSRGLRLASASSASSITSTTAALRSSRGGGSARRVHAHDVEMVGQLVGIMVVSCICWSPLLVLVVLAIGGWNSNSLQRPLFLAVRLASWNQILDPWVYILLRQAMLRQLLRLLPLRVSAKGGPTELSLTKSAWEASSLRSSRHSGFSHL
Procedure: Test for Confirmation of EP1 Receptor Antagonism
(1) Preparation of Rat EP1 Expression Vector
Using Rat Kidney BD Marathon-Ready cDNA (Nippon Becton Dickinson Company, Ltd.) as a template, a forward primer shown in (SEQ ID NO:1), and a reverse primer shown in (SEQ ID NO:2), a first run of PCR was carried out using KOD-Plus-Ver 2.0 (Toyobo Co., Ltd.). Further, using this amplification product as a template, a forward primer shown in (SEQ ID NO:3), and a reverse primer shown in (SEQ ID NO:4), a second run of PCR was carried out in the same manner. The amplification product obtained by the second run of PCR was incorporated into a vector (pcDNA3.1 D/V5-His-TOPO (registered trademark), Invitrogen Japan K. K.). By a conventional method, the vector containing this amplification product was introduced to E. coli (One Shot TOP 10 Competent Cells, Invitrogen Corporation) to transform. This transformed E. coli was cultured in an LB agar medium for one day. After the culture, colonies were selected and cultured in an LB liquid medium containing 50 μg/mL of ampicillin. After the culture, the vector was purified using a QIAprep Spin Miniprep Kit (Qiagen K. K.). The base sequence of the insertion site of this vector (SEQ ID NO:5) was compared with the rat EP1 base sequence (Ptger1) registered as Accession No. NM_013100 in publicly-known database (NCBI), and as a result, they all matched except for a single base. Further, the amino acid sequence translated by the base sequence completely matched the amino acid sequence of the rat EP1 receptor registered as an NCBI Accession No. NP_037232. Therefore, it was confirmed that the cloned gene sequence was a base sequence of the rat EP1 receptor and the obtained amino acid sequence was that of the rat EP1 receptor. The pcDNA3.1 D/V5-His-TOPO (registered trademark) to which the nucleic acid shown in (SEQ ID NO:5) had been inserted was taken as a rat EP1-expressing vector.
(2) Preparation of Rat EP1 Receptor-Expressing Cells
COS-1 cells (Dainippon Sumitomo Pharma Co., Ltd.) were cultured until they reached confluence in an incubator at 37° C. under a 5% CO2 gas condition, using a D-MEM liquid medium (high glucose and L-glutamine contained, Invitrogen Corporation) to which a penicillin-streptomycin solution (Invitrogen Corporation, final concentration: 100 U/mL as benzylpenicillin; 100 μg/mL as streptomycin) as an antibiotic, MEM nonessential amino acids (Invitrogen Corporation, final concentration: 0.1 mM), and fetal calf serum (Sanko Junyaku Co., Ltd., final concentration: 10%) were added.
The cells that had reached confluence were stripped with 0.05% trypsin/0.53 mM EDTA.4Na, and resuspended in a D-MEM liquid medium (high glucose and L-glutamine contained, Invitrogen Corporation) to which an MEM nonessential amino acid (final concentration: 0.1 mM) and fetal calf serum (final concentration: 10%) were added. In each well of a Poly D-lysine-coated 96-well microplate (BD BioCoat (registered trademark), Nippon Becton Dickinson Company, Ltd.), this resuspended cell suspension culture was prepared to be 5×10^4 cells/well in 100 μL of the liquid medium, and 100 μL of the cell suspension was seeded on each well. After seeding, the cells were cultured in an incubator at 37° C. under a 5% CO2 gas condition. At a point when the cells for introduction of a rat EP1-expressing vector were adhered (about 2 hours after seeding), introduction of the rat EP1-expressing vector was carried out in the following order.
For introduction of the rat EP1-expressing vector, Lipofectamine 2000 (Invitrogen Japan K. K.) was used. The rat EP1-expressing vector was diluted with OPTI-MEM (registered trademark) I Reduced-Serum Medium (Invitrogen Japan K. K.) to 200 ng/25 μL/well, and at the same time, Lipofectamine 2000 (Invitrogen Japan K. K.) was also diluted with OPTI-MEM (registered trademark) I Reduced-Serum Medium (Invitrogen Japan K. K.) to 0.5 μL/25 μL/well, followed by incubation at room temperature for 5 minutes. […]

[1] = test system: Sulprostone-Induced Bladder Contraction; test: Inhibitory effect of compound on sulprostone-induced bladder contraction; format: in vivo, rat; conditions: female SD rats, urethane anesthesia, sulprostone 0.3 mg/kg s.c., test agent 1.0 mg/kg intravenously; for Bladder Contraction Inhibition Rate 15 minutes: 15 minutes from administration; for Bladder Contraction Inhibition Rate 60 minutes: 60 minutes from administration
Excerpt: Inhibitory Effect of Compound on Sulprostone-Induced Bladder Contraction
Female SD rats were used. Under urethane anesthesia (1.25 g/kg, administered subcutaneously), a tracheal cannula (Size 8, HIBIKI) and a femoral vein cannula for administration (23 G needle-equipped PESO) were inserted thereinto. The bladder cannula (PESO) was inserted from the bladder apex. The bladder cannula was connected to a three-way stopcock, and then, one was connected to a pressure transducer and the other was connected to a syringe filled with saline. Saline was injected to the bladder at an injection rate of 3.6 mL/hour and the bladder contraction pressure was recorded at the time of injection with a recorder (RECTI-HORITZ-8K, NEC Corporation). After 10 minutes from stabilization of the bladder contraction pressure during urination, sulprostone was administered subcutaneously (0.3 mg/kg). Then, at the time point when the bladder contraction pressure became constant, a test agent was administered intravenously (1.0 mg/kg). An average bladder contraction pressure during the 10 minute period before administration of sulprostone was taken as a baseline (0%). Further, an average bladder contraction pressure during the 10 minute period directly before administration of the test agent was taken as a maximum bladder contraction pressure (100%). The average bladder contraction pressures were measured during 5 minutes before and after at 15 minutes and 60 minutes from administration of the test agent. The ratio of this measured value to the maximum bladder contraction pressure was calculated by the following equation and taken as an average bladder contraction rate after administration of the test agent: (Average Bladder Contraction Rate after Administration of Test Agent (%))=[(Average Bladder Contraction Pressure after Administration of Test Agent)/(Maximum Bladder Contraction Pressure)]×100 EQUATION 1
In addition, the difference between the maximum bladder contraction rate (100%) and the average bladder contraction rate (%) after administration of the test agent was calculated by the following equation and taken as a bladder contraction inhibition rate of the test agent: (Bladder Contraction Inhibition Rate)=100%−(Average Bladder Contraction Rate after Administration of Test Agent (%)) EQUATION 2

Compound | IC50 (rat EP1 receptor) [nM] | Bladder Contraction Inhibition Rate 15 minutes [1] [%] | Bladder Contraction Inhibition Rate 60 minutes [1] [%]
COc1ccc2c(Cc3cccc(C(=O)NS(C)(=O)=O)n3)c(-c3ccccc3)[nH]c2c1 [Example 2-1, N-Methanesulfonyl-6-(6-methoxy-2-phenyl-1H-indol-3-ylmethyl)pyridine-2-carboxamide] | 27 | 68.3 | 84.0
CS(=O)(=O)NC(=O)c1cccc(Cc2c(-c3ccccc3)[nH]c3cc(C4CC4)ccc23)n1 [Example 2-2, 6-(6-Cyclopropyl-2-phenyl-1H-indol-3-ylmethyl)-N-methanesulfonylpyridine-2-carboxamide] | 29 | 90.0 | 70.4
Cc1ccc2c(Cc3cccc(C(=O)NS(C)(=O)=O)n3)c(-c3ccccc3)[nH]c2c1 [Example 3-1, N-Methanesulfonyl-6-(6-methyl-2-phenyl-1H-indol-3-ylmethyl)pyridine-2-carboxamide] | 33 | 77.3 | 78.2
COc1cc2[nH]c(-c3ccccc3)c(Cc3cccc(C(=O)NS(C)(=O)=O)n3)c2cc1F [Example 3-9, 6-(5-fluoro-6-methoxy-2-phenyl-1H-indol-3-ylmethyl)-N-methanesulfonylpyridine-2-carboxamide] | 25 | 76.4 | 78.9
CCS(=O)(=O)NC(=O)c1cccc(Cc2c(-c3ccsc3)[nH]c3cc(OC)ccc23)n1 [Example 3-35, N-ethanesulfonyl-6-(6-methoxy-2-thiophen-3-yl-1H-indol-3-ylmethyl)pyridine-2-carboxamide] | 46 | 45.9 | 45.1
c1ccc(-c2[nH]c3cc(C4CC4)ccc3c2Cc2cccc(-c3nnn[nH]3)n2)cc1 [Example 5-1, 6-Cyclopropyl-2-phenyl-3-[6-(1H-tetrazol-5-yl)pyridin-2-ylmethyl]-1H-indole] | 61 | 82.8 | 91.6
COc1cc2[nH]c(-c3ccccc3)c(Cc3cccc(C(=O)NS(=O)(=O)C(C)C)n3)c2cc1F [Example 18-3] | 41 | – | –
COc1cc2[nH]c(-c3ccccc3)c(Cc3cccc(C(=O)NS(=O)(=O)C4CC4)n3)c2cc1F [Example 18-4] | 35 | – | –
CCCS(=O)(=O)NC(=O)c1cccc(Cc2c(-c3ccccc3)[nH]c3cc(OC)c(F)cc23)n1 [Example 18-5] | 32 | – | –
Cc1ccc2c(Cc3cccc(C(=O)NS(=O)(=O)C(C)C)n3)c(-c3ccsc3)[nH]c2c1 [Example 18-10] | 26 | – | –
COc1cc2[nH]c(-c3ccccc3)c(Cc3cccc(C(=O)NS(=O)(=O)c4ccccc4)n3)c2cc1F [Example 18-11] | 27 | – | –
COc1ccc2c(Cc3cccc(C(=O)NS(=O)(=O)c4ccccc4F)n3)c(C(C)(C)C)[nH]c2c1 [Example 18-13] | 40 | – | –
COc1ccc2c(Cc3cccc(/C=C/c4nnn[nH]4)n3)c(-c3ccccc3)[nH]c2c1 [Example 19, 6-Methoxy-2-phenyl-3-{6-[(E)-2-(1H-tetrazol-5-yl)vinyl]pyridine-2-ylmethyl}-1H-indole] | 34 | – | –
COc1cc2c(Cc3cccc(-c4nnn[nH]4)n3)c(C3(C)CC3)[nH]c2cc1Cl [Example 20-1, 6-chloro-5-methoxy-2-(1-methylcyclopropyl)-3-[6-(1H-tetrazol-5-yl)pyridin-2-ylmethyl]-1H-indole] | 27 | – | –

These reach a lower IC50 (rat EP1 receptor). Values come first.

IC50 (rat EP1 receptor) [nM] | Compound | Bladder Contraction Inhibition Rate 15 minutes [1] [%] | Bladder Contraction Inhibition Rate 60 minutes [1] [%]
24 | CC1(c2[nH]c3cc(Cl)ccc3c2Cc2cccc(-c3nnn[nH]3)n2)CC1 [Example 17-14, 6-chloro-2-(1-methylcyclopropyl)-3-[6-(1H-tetrazol-5-yl)pyridin-2-ylmethyl]-1H-indole] | – | –
23 | CCS(=O)(=O)NC(=O)c1cccc(Cc2c(-c3ccsc3)[nH]c3cc(C)ccc23)n1 [Example 18-9] | – | –
18 | CCS(=O)(=O)NC(=O)c1cccc(Cc2c(-c3ccccc3)[nH]c3cc(OC)ccc23)n1 [Example 3-6] | 67.5 | 63.6
15 | CCc1ccc2c(Cc3cccc(-c4nnn[nH]4)n3)c(C3(C)CC3)[nH]c2c1 [Example 20-2, 6-ethyl-2-(1-methylcyclopropyl)-3-[6-(1H-tetrazol-5-yl)pyridin-2-ylmethyl]-1H-indole] | – | –
14 | COc1cc2[nH]c(C3(C)CC3)c(Cc3cccc(-c4nnn[nH]4)n3)c2cc1C [Example 20-4, 6-methoxy-5-methyl-2-(1-methylcyclopropyl)-3-[6-(1H-tetrazol-5-yl)pyridin-2-ylmethyl]-1H-indole] | – | –
11 | COc1ccc2c(Cc3cccc(-c4nnn[nH]4)n3)c(-c3cncnc3)[nH]c2c1 [Example 23, 6-Methoxy-2-pyrimidin-5-yl-3-[6-(1H-tetrazol-5-yl)pyridin-2-ylmethyl]-1H-indole] | – | –
4.7 | COc1ccc2c(Cc3cccc(-c4nnn[nH]4)n3)c(-c3ccccc3)[nH]c2c1 [Example 5-2, 6-methoxy-2-phenyl-3-[6-(1H-tetrazol-5-yl)pyridin-2-ylmethyl]-1H-indole] | 88.2 | 76.2
